Source: patent publication EP3034496A1, “NOVEL SOLVATES OF N-[2-[(1S)-1-(3-ETHOXY-4-METHOXYPHENYL)-2-(METHYLSULFONYL)ETHYL]-2,3-DIHYDRO-1,3-DIOXO-1H-ISOINDOL-4-YL]ACETAMIDE” (LEK Pharmaceuticals d.d., priority 2014, dated 2016)
Read-outs that look alike come from different tables or passages of the source.

Assays:
[1] = 90th percentile of the particle size distribution as measured by length, from WO 2009/120167 A1, cited from earlier work
[2] = gravimetric moisture sorption desorption isotherm; format: physicochemical; conditions: 0 to 95% relative humidity, (25.0 ± 0.1) °C
Method: Gravimetric moisture sorption desorption isotherm was acquired using a SPS-11 moisture sorption analyzer (MD Messtechnik, Ulm, D). The sample was weighed into an Aluminium sample holder. […] The water content of the samples was determined after the moisture sorption/ desorption experiments with a TGA 7 system (Perkin Elmer, Norwalk, Ct., USA) using the Pyris 2.0 software according to the above described method.

[3] = cited from earlier work; for solubility in H2O: value of the organic solvent incorporated into the crystal structure, not of the crystal form

CCOc1cc([C@@H](CS(C)(=O)=O)N2C(=O)c3cccc(NC(C)=O)c3C2=O)ccc1OC [Form G, N-[2-[(1S)-1-(3-ethoxy-4-methoxyphenyl)-2-(methylsulfonyl)ethyl]-2,3-dihydro-1,3-dioxo-1H-isoindol-4-yl]acetamide]
D90 ([1]; listed as G): < 18 microm

CCOc1cc([C@@H](CS(C)(=O)=O)N2C(=O)c3cccc(NC(C)=O)c3C2=O)ccc1OC [Form E, N-[2-[(1S)-1-(3-ethoxy-4-methoxyphenyl)-2-(methylsulfonyl)ethyl]-2,3-dihydro-1,3-dioxo-1H-isoindol-4-yl]acetamide]
D90 ([1]; listed as E): < 18 microm

N-[2-[(1S)-1-(3-ethoxy-4-methoxyphenyl)-2-(methylsulfonyl)ethyl]-2,3-dihydro-1,3-dioxo-1H-isoindol-4-yl]acetamide ethanol solvate
hygroscopicity [2]: non-hygroscopic (compounds showing a mass change of less than 2 weight% based on the weight of the compound in the range of from 0 to 95% relative humidity at (25.0 ± 0.1) °C)
mass change ([2]; based on the weight of the crystalline ethanol solvate): less than 0.5 % w/w

ClCCl [methylene chloride]
solubility in H2O [3]: 1.6 %w/w

CCOc1cc([C@@H](CS(C)(=O)=O)N2C(=O)c3cccc(NC(C)=O)c3C2=O)ccc1OC [Form C, N-[2-[(1S)-1-(3-ethoxy-4-methoxyphenyl)-2-(methylsulfonyl)ethyl]-2,3-dihydro-1,3-dioxo-1H-isoindol-4-yl]acetamide]
D90 ([1]; listed as C): < 12 microm

CCOC(C)=O [ethyl acetate]
aqueous solubility / water solubility ([3]; organic solvent): 8.7 % w/w
solubility in H2O [3]: 8.7 %w/w

CCOc1cc([C@@H](CS(C)(=O)=O)N2C(=O)c3cccc(NC(C)=O)c3C2=O)ccc1OC [Form D, N-[2-[(1S)-1-(3-ethoxy-4-methoxyphenyl)-2-(methylsulfonyl)ethyl]-2,3-dihydro-1,3-dioxo-1H-isoindol-4-yl]acetamide]
D90 ([1]; listed as D): < 18 microm

CC#N [acetonitrile]
solubility in H2O [3]: 100 %w/w

CC(C)=O [acetone]
solubility in water (in words) ([3]; organic solvent): freely soluble in water
solubility in H2O [3]: 100 %w/w

CCO [ethanol]
solubility in water (in words) ([3]; organic solvent): freely soluble in water
solubility in H2O [3]: 100 %w/w
